Assay results reported in patent US12569467B2, “Small molecules that treat or prevent viral infections” (priority 2022, dated 2026).

Assays:
[1] = tested on: SARS-CoV-2 variant Omicron Spike protein pseudotyped lentiviral particles; assay: microbe, parasite or virus in culture; type: cell-based, SARS-CoV-2 Omicron variant; details: Severe acute respiratory syndrome coronavirus 2, HEK293, read-out: EC50, inhibition of infection of Omicron variant
[2] = tested on: SARS-CoV-2 variant Delta Spike protein pseudotyped lentiviral particles; assay: microbe, parasite or virus in culture; type: cell-based, SARS-CoV-2 Delta variant; details: Severe acute respiratory syndrome coronavirus 2, HEK293, read-out: EC50, inhibition of infection of Delta variant
[3] = tested on: spike protein of Delta variant; type: binding, SARS-CoV2 Delta variant
[4] = tested on: spike protein of Omicron variant; type: binding, SARS-CoV2 Omicron variant

O=C1Nc2ccccc2/C1=C\c1ccc(-c2cc(C(F)(F)F)cc(C(F)(F)F)c2)o1 [CD04872SC, 3-({5-[3,5-di(trifluoromethyl)phenyl]-2-furyl}methylidene)indolin-2-one]
EC50 [1]: 308 µM | EC50 [2]: 152 µM | thermal stability change in presence of compound [3]: same stabilizing tendency | thermal stability change in presence of compound [4]: same stabilizing tendency
